Assays:
[1] = system: mice; details: cited from earlier work
[2] = system: human epithelial cells; assay: tests of toxicity on human epithelial cells; assay type: cell-based; details: approximate levels of 0.25 millimole concentrations; compared with controls
[3] = system: E. Coli; assay: challenging the growth of E. Coli with measurement of optical density of media; assay type: cell-based; details: same optical density reduction; comparator 4-chlorophenyl-2-thienyliodonium bromide
Source text: In an experiment challenging the growth of E. Coli with measurement of optical density of media, the present iodonium composition, 3,5-dimethyl 4-chlorophenyl 2-thienyl iodonium bromide, suppressed the optical density of the E. Coli media at one tenth the concentration needed to accomplish the same optical density reduction utilizing 4-chlorophenyl-2-thienyliodonium bromide. Optical density of the media is a semi-quantitative measure of the presence of growing bacteria. Reduced density indicates the test compounds are retarding bacterial growth. Thus, 3,5-dimethyl 4-chlorophenyl 2-thienyl iodonium bromide, which is non-toxic to mammals, has greater antimicrobial activity than 4-chlorophenyl-2-thienyliodonium bromide.

[4] = system: several strains of Staphylococcus aurelius, including Methicillin-resistant Staphylococcus aureus isolates; assay: MIC50 on Staphylococcus strains including Methicillin-resistant Staphylococcus aureus isolates; assay type: cell-based; details: same bacteria strains, incl. MRSA isolates; comparator 4-chlorophenyl 2-thienyl iodonium chloride

Row | SMILES | oral median lethal dose (LD50) [1] | toxicity on human epithelial cells [2] | concentration needed to suppress optical density of E. Coli media, as fraction of that needed with 4-chlorophenyl-2-thienyliodonium bromide [3] | MIC50 as fraction of the MIC50 for 4-chlorophenyl 2-thienyl iodonium chloride [4]
1 | Clc1ccc([I+]c2cccs2)cc1.[Cl-] [4-chlorophenyl-2-thienyliodonium chloride] | greater than 4000 mg/kg |  |  | 
2 | Clc1ccc([I+]c2cccs2)cc1.[Br-] [4-chlorophenyl-2-thienyliodonium bromide, reference compound] |  | lack of toxicity similar to that of controls |  | 
3 | Cc1cc([I+]c2cccs2)cc(C)c1Cl.[Br-] [3,5-dimethyl 4-chlorophenyl 2-thienyl iodonium bromide] |  | lack of toxicity similar to that of controls | one tenth | one fifth

Source: patent publication US8053478B1, “Antimicrobial diaryl iodonium compositions and method” (Cornell Development Group, LLC, priority 2007, dated 2011)
